Measurements from patent US11389396B2, “Tumescent antibiotic injection for treatment of chronic skin and soft tissue infections” (The Regents of the University of California, priority 2016, dated 2022).

Experiments:
[1] = CT scans over seven hours of tumescent injections of saline containing iodine contrast; format: in vivo, Yucatan pig
Method: To more accurately determine the timescale over which the local antibiotic concentration remains high, we performed CT scans over a long time period.
The figures are CTs viewing the abdomen of the pig with the head towards the top of the figure. Tumescent injections are seen as 4 rows, and 2 columns of large circular white regions, with injection volumes 20 mL, 10 mL, 5 mL and 2.5 mL from top row to bottom. There is one column of 4 tiny white dots along the center of the abdomen that are skin markers placed in the same axial plane as the location of the injections for reference. It is clear that the iodine concentration may remain high for several hours. While the 20 mL injections are clearly visible for 5 hours, the 2.5 mL injections are easily seen for only 3 hours.
Each value along the lineout represents the max attenuation value below that point on a line perpendicular to the surface (Maximum Intensity Projection mode). For comparison, we measured the attenuation of a vial of pure infusate to be 500 HU, and the attenuation of normal subcutaneous tissue to be about −90 HU. A concentration equal to at least half the initial value (or attenuation of […]—half way between the extremes) is maintained for at least 4 hours.

[2] = CT images roughly every 10 min of 20 mL tumescent injections, local fraction of contrast
Method: In a different experiment we took CT images roughly every 10 min instead of every hour in order to see the initially rapid dynamics. An axial cross-sectional image is shown in FIG. 14 before and after two 20 mL tumescent injections on symmetric sides of the anesthetized adult Yucatan pig's abdomen.
The initial rise is due to the spreading of the tumescent fluid after the completion of the injection into unexpanded tissue. […] We verified this by multiplying the total volume and mean curves to get a measure of the “total contrast” that remains localized in the tumescence (FIG. 15 bottom, left). Dividing the total contrast curve by its maximum yields the “Localized Fraction” curves of FIG. 15 (bottom, right).

[3] = system: MRSA strains; settings: 1 g/100 mL cefazolin in tumescent solution; cited from earlier work
[4] = in vivo; cited from earlier work
[5] = healthy tissue; cited from earlier work

II [iodine]
time for which the injection is easily seen on CT ([1]; 2.5 mL subcutaneous abdominal injection, saline with 2 g/100 mL iodine contrast, healthy adult Yucatan pig): 3 h | time for which the injection is clearly visible on CT ([1]; 20 mL subcutaneous abdominal injection, saline with 2 g/100 mL iodine contrast, healthy adult Yucatan pig): 5 h | time for which a concentration of at least half the initial value is maintained ([1]; CT lineouts, maximum intensity projection, attenuation 155 as half way point): at least 4 hours | drop in the local fraction (take-up by lymph and capillaries) ([2]; over the 70 minutes of the experiment, anesthetized adult Yucatan pig): ~30% | timescale of spontaneous spreading ([2]; tumescent injection, CT): < 5 min | timescale of take up by the serum ([2]; tumescent injection, CT): ~1 h

Cc1nnc(SCC2=C(C(=O)O)N3C(=O)[C@@H](NC(=O)Cn4cnnn4)[C@H]3SC2)s1 [cefazolin]
concentration relative to the MIC [3]: above the MIC for most, if not all, MRSA strains

CO/N=C(\C(=O)N[C@@H]1C(=O)N2C(C(=O)O)=C(CSc3nc(=O)c(=O)[nH]n3C)CS[C@H]12)c1csc(N)n1 [Ceftriaxone]
concentration shown to be safe, relative to 1 g/100 mL cefazolin [4]: 35 times higher concentrations

CNC[C@H](O)c1ccc(O)c(O)c1 [epinephrine]
systemic absorption time extended by use of a vasoconstrictor [5]: > 8 h
